pIC50: −log10 of the molar value. In brackets after ≈: the same amount, converted by molar mass.
Columns and labels:
[1] = Solubility pH 7; format: physicochemical; settings: pH 7, aqueous buffer
[2] = molecular target: T1, β5 (Homo sapiens, UniProt P20618+P28074); test: ProCISE proteasome subunit assay, β5; format: biochemical; settings: for pIC50: MOLT4 lysate Hu 1 h
T1 construct: endogenous in cells; host or cells: MOLT-4
Description: (§1) This assay was used to assess the inhibitory activity against each of LMP2, LMP7, MECL1, β1, β2, and β5. Briefly, test compounds were serially diluted in DMSO at 100× concentration, then diluted to 10× in aqueous hypotonic lysis buffer. Lysate from the human acute lymphoblastic leukemia cell line, MOLT-4, was treated for 1 hour at 25° C. with compound at a final 1× concentration. […] Following this, lysate was denatured in guanidine hydrochloride, and subunits bound to probe were isolated with streptavidin-conjugated sepharose beads. Individual subunits were probed with subunit-specific primary antibodies, followed by HRP-conjugated secondary antibodies. A chemiluminescent substrate was used to generate signal associated with HRP binding, which was detected on a plate reader. Luminescent signal was normalized to protein content, then, percent activity calculated relative to DMSO-treated controls to generate IC50 curves.

[3] = molecular target: T2, LMP7 (Homo sapiens, UniProt P20618+P28062); test: ProCISE proteasome subunit assay, LMP7; format: biochemical; settings: for pIC50: MOLT4 lysate Hu 1 h
T2 construct: endogenous in cells; host or cells: MOLT-4
Description: as §1

Row | solubility [1] [µg/mL] | pIC50 [2] | pIC50 [3] | Compound | also measured
1 | 0.7 (≈ 1.13 µM) |  |  | CC1=C(C(=O)N[C@H](C)C(=O)N[C@@H](Cc2c[nH]c3ccccc23)C(=O)N[C@@H](Cc2ccccc2)C(=O)[C@@]2(C)CO2)Cc2ccccc21 [Compound C-2003] | 
2 | 1.9 (≈ 3.07 µM) |  |  | CC1=C(C(=O)N[C@@H](C)C(=O)N[C@@H](Cc2c[nH]c3ccccc23)C(=O)N[C@@H](Cc2ccccc2)C(=O)[C@@]2(C)CO2)Cc2ccccc21 [Compound C-2004] | 
3 | 735 (≈ 1480 µM) |  |  | COc1ccc(C[C@H](NC(=O)[C@H](C)NC(C)=O)C(=O)N[C@@H](Cc2ccccc2)C(=O)[C@@]2(C)CO2)cc1 [Compound C-2005] | 
4 | 163 (≈ 318 µM) |  |  | COC(=O)N[C@@H](C)C(=O)N[C@@H](Cc1ccc(OC)cc1)C(=O)N[C@@H](Cc1ccccc1)C(=O)[C@@]1(C)CO1 [Compound C-2009, Methyl ((S)-1-(((S)-3-(4-methoxyphenyl)-1-(((S)-1-((R)-2-methyloxiran-2-yl)-1-oxo-3-phenylpropan-2-yl)amino)-1-oxopropan-2-yl)amino)-1-oxopropan-2-yl)carbamate] | 
5 |  | 6.55 | 7.16 | COc1ccc(C[C@H](NC(=O)[C@@H](CC(=O)OC(C)(C)C)NC(=O)OCc2ccccc2)C(=O)N[C@@H](Cc2ccccc2)C(=O)[C@@]2(C)CO2)cc1 [Compound C-2016, (R)-tert-Butyl 3-(((benzyloxy)carbonyl)amino)-4-(((S)-3-(4-methoxyphenyl)-1-(((S)-1-((R)-2-methyloxiran-2-yl)-1-oxo-3-phenylpropan-2-yl)amino)-1-oxopropan-2-yl)amino)-4-oxobutanoate] | 
6 |  | 6.89 | 7.43 | COc1ccc(C[C@H](NC(=O)[C@@H](CC(=O)O)NC(=O)OCc2ccccc2)C(=O)N[C@@H](Cc2ccccc2)C(=O)[C@@]2(C)CO2)cc1 [Compound C-2017, (R)-3-(((Benzyloxy)carbonyl)amino)-4-(((S)-3-(4-methoxyphenyl)-1-(((S)-1-((R)-2-methyloxiran-2-yl)-1-oxo-3-phenylpropan-2-yl)amino)-1-oxopropan-2-yl)amino)-4-oxobutanoic acid] | 
7 | 0.3 (≈ 0.491 µM) | 5.96 | 7.16 | CC1=C(C(=O)N[C@H](C)C(=O)N[C@@H](Cc2c[nH]c3ccccc23)C(=O)N[C@@H](CC2CCCC2)C(=O)[C@@]2(C)CO2)Cc2ccccc21 [Compound C-2047, N—((R)-1-(((S)-1-(((S)-3-cyclopentyl-1-((R)-2-methyloxiran-2-yl)-1-oxopropan-2-yl)amino)-3-(1H-indol-3-yl)-1-oxopropan-2-yl)amino)-1-oxopropan-2-yl)-3-methyl-1H-indene-2-carboxamide] | 
8 | 0.8 (≈ 1.31 µM) |  |  | COc1ccc(C[C@H](NC(=O)[C@H](C)NC(=O)C2=C(C)c3ccccc3C2)C(=O)N[C@@H](Cc2ccccc2)C(=O)[C@@]2(C)CO2)cc1 [Compound C-2049, N—((S)-1-(((S)-3-(4-methoxyphenyl)-1-(((S)-1-((R)-2-methyloxiran-2-yl)-1-oxo-3-phenylpropan-2-yl)amino)-1-oxopropan-2-yl)amino)-1-oxopropan-2-yl)-3-methyl-1H-indene-2-carboxamide] | IC50 ([2]; ProCISE beta5 MOLT4 lysate Hu 1 h CONT: IC50 (nM)): 57.6 nM; IC50 ([3]; ProCISE LMP7 MOLT4 lysate Hu 1 h CONT: IC50 (nM)): 45.8 nM
9 | 1260 (≈ 2270 µM) | 8.28 | 8.74 | COc1ccc(C[C@H](NC(=O)[C@@H](C)NC(=O)CC(C)(C)O)C(=O)N[C@@H](Cc2ccc(C)cc2)C(=O)[C@H]2CO2)cc1 [Compound C-2053, 3-hydroxy-N—((R)-1-(((S)-3-(4-methoxyphenyl)-1-(((S)-1-((R)-oxiran-2-yl)-1-oxo-3-(p-tolyl)propan-2-yl)amino)-1-oxopropan-2-yl)amino)-1-oxopropan-2-yl)-3-methylbutanamide] | 
10 | 1970 (≈ 3400 µM) | 6.45 | 7.75 | C[C@@H](NC(=O)CC(C)(C)O)C(=O)N[C@@H](Cc1ccc(S(C)(=O)=O)cc1)C(=O)N[C@@H](CC1CCCC1)C(=O)[C@H]1CO1 [Compound C-2055, N—((R)-1-(((S)-1-(((S)-3-cyclopentyl-1-((R)-oxiran-2-yl)-1-oxopropan-2-yl)amino)-3-(4-(methylsulfonyl)phenyl)-1-oxopropan-2-yl)amino)-1-oxopropan-2-yl)-3-hydroxy-3-methylbutanamide] | 
11 | 45.4 (≈ 82.9 µM) | 5.37 | 6.27 | COc1ccc(C[C@H](NC(=O)[C@@H](C)NC(=O)C2=CCCC2)C(=O)N[C@@H](Cc2ccccc2)C(=O)[C@@]2(C)CO2)cc1 [Compound C-2058, N—((R)-1-(((S)-3-(4-methoxyphenyl)-1-(((S)-1-((R)-2-methyloxiran-2-yl)-1-oxo-3-phenylpropan-2-yl)amino)-1-oxopropan-2-yl)amino)-1-oxopropan-2-yl)cyclopent-1-enecarboxamide] | 
12 | 26.3 (≈ 44.6 µM) |  |  | COc1ccc(C[C@H](NC(=O)[C@@H](C)NC(=O)c2ccc3[nH]ncc3c2)C(=O)N[C@@H](CC2CCCC2)C(=O)[C@@]2(C)CO2)cc1 [Compound C-2061, N—((R)-1-(((S)-1-(((S)-3-cyclopentyl-1-((R)-2-methyloxiran-2-yl)-1-oxopropan-2-yl)amino)-3-(4-methoxyphenyl)-1-oxopropan-2-yl)amino)-1-oxopropan-2-yl)-1H-indazole-5-carboxamide] | 
13 | 56 (≈ 95 µM) |  |  | COc1ccc(C[C@H](NC(=O)[C@@H](C)NC(=O)c2ccc3[nH]cnc3c2)C(=O)N[C@@H](CC2CCCC2)C(=O)[C@@]2(C)CO2)cc1 [Compound C-2062, N—((R)-1-(((S)-1-(((S)-3-cyclopentyl-1-((R)-2-methyloxiran-2-yl)-1-oxopropan-2-yl)amino)-3-(4-methoxyphenyl)-1-oxopropan-2-yl)amino)-1-oxopropan-2-yl)-1H-benzo[d]imidazole-5-carboxamide] | 
14 | 21.4 (≈ 36.3 µM) |  |  | COc1ccc(C[C@H](NC(=O)[C@@H](C)NC(=O)c2ccc3cn[nH]c3c2)C(=O)N[C@@H](CC2CCCC2)C(=O)[C@@]2(C)CO2)cc1 [Compound C-2063, N—((R)-1-(((S)-1-(((S)-3-cyclopentyl-1-((R)-2-methyloxiran-2-yl)-1-oxopropan-2-yl)amino)-3-(4-methoxyphenyl)-1-oxopropan-2-yl)amino)-1-oxopropan-2-yl)-1H-indazole-6-carboxamide] | 
15 | 144 (≈ 242 µM) | 5.21 | 6.86 | COc1ccc(C[C@H](NC(=O)[C@@H](C)NC(=O)[C@@H]2CCc3[nH]ncc3C2)C(=O)N[C@@H](CC2CCCC2)C(=O)[C@@]2(C)CO2)cc1 [Compound C-2064, (R)—N—((R)-1-(((S)-1-(((S)-3-cyclopentyl-1-((R)-2-methyloxiran-2-yl)-1-oxopropan-2-yl)amino)-3-(4-methoxyphenyl)-1-oxopropan-2-yl)amino)-1-oxopropan-2-yl)-4,5,6,7-tetrahydro-1H-indazole-5-carboxamide] | 
16 | 43.6 (≈ 74.7 µM) |  |  | COc1ccc(C[C@H](NC(=O)[C@H](C)NC(=O)Cc2cnc(N)s2)C(=O)N[C@@H](CC2=CCCC2)C(=O)[C@@]2(C)CO2)cc1 [Compound C-2066, (S)-2-((S)-2-(2-(2-aminothiazol-5-yl)acetamido)propanamido)-N—((S)-3-(cyclopent-1-en-1-yl)-1-((R)-2-methyloxiran-2-yl)-1-oxopropan-2-yl)-3-(4-methoxyphenyl)propanamide] | 
17 | 61.6 (≈ 101 µM) |  |  | COc1ccc(C[C@H](NC(=O)[C@H](C)NC(=O)Cc2cnc(N(C)C)s2)C(=O)N[C@@H](CC2=CCCC2)C(=O)[C@@]2(C)CO2)cc1 [Compound C-2067, (S)—N—((S)-3-(cyclopent-1-en-1-yl)-1-((R)-2-methyloxiran-2-yl)-1-oxopropan-2-yl)-2-((S)-2-(2-(2-(dimethylamino)thiazol-5-yl)acetamido)propanamido)-3-(4-methoxyphenyl)propanamide] | 
18 | 54.6 (≈ 87.5 µM) |  |  | COc1ccc(C[C@H](NC(=O)[C@H](C)NC(=O)Cc2cnc(N3CCC3)s2)C(=O)N[C@@H](CC2=CCCC2)C(=O)[C@@]2(C)CO2)cc1 [Compound C-2068, (S)-2-((S)-2-(2-(2-(azetidin-1-yl)thiazol-5-yl)acetamido)propanamido)-N—((S)-3-(cyclopent-1-en-1-yl)-1-((R)-2-methyloxiran-2-yl)-1-oxopropan-2-yl)-3-(4-methoxyphenyl)propanamide] | 
19 | 26.6 (≈ 41.7 µM) |  |  | COc1ccc(C[C@H](NC(=O)[C@H](C)NC(=O)Cc2cnc(N3CCCC3)s2)C(=O)N[C@@H](CC2=CCCC2)C(=O)[C@@]2(C)CO2)cc1 [Compound C-2069, (S)—N—((S)-3-(cyclopent-1-en-1-yl)-1-((R)-2-methyloxiran-2-yl)-1-oxopropan-2-yl)-3-(4-methoxyphenyl)-2-((S)-2-(2-(2-(pyrrolidin-1-yl)thiazol-5-yl)acetamido)propanamido)propanamide] | 
20 | 1020 (≈ 1800 µM) |  |  | COc1ccc(C[C@H](NC(=O)[C@H](C)NC(=O)Cc2cnc(N)o2)C(=O)N[C@@H](CC2=CCCC2)C(=O)[C@@]2(C)CO2)cc1 [Compound C-2070, (S)-2-((S)-2-(2-(2-aminooxazol-5-yl)acetamido)propanamido)-N—((S)-3-(cyclopent-1-en-1-yl)-1-((R)-2-methyloxiran-2-yl)-1-oxopropan-2-yl)-3-(4-methoxyphenyl)propanamide] | 
21 | 1920 (≈ 3760 µM) |  |  | COc1ccc(C[C@H](NC(=O)[C@@]2(CO)CCCN2)C(=O)N[C@@H](Cc2ccccc2)C(=O)[C@@]2(C)CO2)cc1 [Compound C-3005] | 
22 | 385 (≈ 823 µM) |  |  | COc1ccc(C[C@H](NC(=O)C(C)(C)N)C(=O)N[C@@H](Cc2ccccc2)C(=O)[C@@]2(C)CO2)cc1 [Compound C-3006, 2-Amino-N—((S)-3-(4-methoxyphenyl)-1-(((S)-1-((R)-2-methyloxiran-2-yl)-1-oxo-3-phenylpropan-2-yl)amino)-1-oxopropan-2-yl)-2-methylpropanamide] | 
